Patent US12486255B2, “Modulators of RAS GTPase” (Tosk, Inc., priority 2018, dated 2025)
Read-outs that look alike come from different tables or passages of the source.

Legend:
[1] = Multi-day safety study in mice; format: in vivo; conditions: female CD1 mice, 10 mg/kg ip daily for 6 days
Procedure: The multi-day safety study used female, 10 week old, CD1 mice (4/treatment group) dosed with DMSO. Mice were administered 2 mg/kg of Structure 2 or 10 mg/kg Structure 3, ip, daily for 6 days and evaluated for changes clinical chemistry values, hematology values and animal weight as well as signs of health and grooming habits.
Heparinized blood samples were obtained by retro-orbital puncture on Day 6, 12 hours after the last dose of Structure 2. The plasma harvested from the blood was analyzed for standard clinical chemistry parameters (ALB. ALP, ALT, AMY, TBIL, BUN, CA, PHOS, CRE GLU, NA, K, TP & GLOB) and hematology (WBC, LYM, MON, GRA, RBC, HGB, HCT, MCV, MCH, MCHC, RDWc, PLT, PCT, MPV, PDWc) analytes (see definitions herein). Animal weight changes were also monitored. Values for all analytes were analyzed by one way ANOVA plus post-hoc Bonferroni using SPSS (IBM, Armonk, NY).

[2] = tested on: flies expressing G12V in their wing; assay: Fly assay, wing phenotype reversal; format: in vivo, Drosophila
Source text: Each wing from mutant flies receiving treatment with either water or compound received a score from two independent scorers according to the scheme outlined in the schematic. The analysis of the scores given to the compound group was compared to the scores given for the control (water) group.
Embryo preparation. GAL4 virgin ♀ were collected over a period of 3-5 days, then crossed with kRAS G12V (3M) ♂ inside a plastic condo supplied with grape agar containing yeast paste. Flies were acclimated for 2 days and embryos present after a span of 4-5 hours were collected along with the agar plate and incubated for 24 hours. The next day, embryos were washed off the agar plate with Embryo Wash solution (120 mM NaCl, 0.03% Triton X) and resuspended in Embryo Inoculation solution (120 mM NaCl, 420 mM Sucrose, 0.05% Triton X-100). Embryos were counted and diluted to 15 embryos/10 μL. 150 embryos (100 μL) were dispensed into each vial.
Food-drug admix preparation. Each fly vial contains 1.5 g of fly food in 4 ml water. The quantity of drug needed is calculated for a total of 4 vials, each vial containing 10 μM of Structure 2. This is equivalent to 0.014 mg of Structure 2/vial, for a total of 0.056 mg of Structure 2.
A stock solution of 0.1 mg/mL Structure 2 in ethanol is prepared. A 500-ml round bottom flask is charged with 6 g of fly food (1.5 g×4), to which is added 20 mL of ethanol, ensuring that the food is entirely covered in solvent. To this heterogeneous solution is added an appropriate amount of Structure 2 stock solution, containing the calculated required quantity, in this case 0.56 mL stock solution.
The ethanol is evaporated under reduced pressure via a rotary evaporator equipped with a bump trap. The resulting dry food is added to three vials, each containing 1.5 g, so that the experiment is performed in triplicate. The quantity is calculated initially for 4 vials, because some food will be stuck to the walls of the round bottom flask and some is also invariably lost in the bump trap during the solvent evaporation step. Control vials lacking Structure 2 or Structure 3 are also analyzed and undergo the exact same food preparation and solvent extraction procedure.
Embryo addition to vials. After all the food-drug admix is prepared and added to the respective vials, to each vial is added 4 mL of water and the vial briefly vortexed. To this liquid mixture is added the embryo solution (100 μL), the vials capped and placed in an incubator or fly room.
Wing mounting and scoring. Flies hatch 10-12 days after the above experimental setup is performed. The resulting adult flies are submerged in a 3:1 70% ethanol:glycerol solution for 24 hours, then wings are dissected with curved Vannas spring scissors (FST #15001-08). The wings are mounted in an 80% glycerol solution on a microscope slide under coverslip seal.
Pictures of the wings were taken using an Accu-Scope microscope equipped with a digital camera and connected to a laptop containing the Accu-Scope Micrometric SE Premium software. The wings were scored according to the following scoring tree:
Wing score analysis. After each wing received a score from two independent scorers, the analysis of the scores given to the Structure 2 and 3 groups was compared to the scores given for the control group and was performed using the IBM SPSS software.
Wings that received a score of 3 or above are considered “reversed”, since their phenotype is closer to WT than to kRAS G12V bearing Drosophila. The findings are plotted in FIG. 9. […]

[3] = Pharmacokinetic study in mice; format: in vivo; conditions: ip, 10 mg/kg, CD-1 mice, 10 mg/kg; for Vd/F: CD-1, mouse, read-out: Vz/F
Procedure: Pharmacokinetic studies were carried out using 10 weeks old CD-1 mice. Structure 2 and Structure 3 were injected ip, 3 mg/kg and 10 mg/kg, respectively, at 8 time points (0, 0.25, 0.5, 1, 2, 4, 8 and 24 hours post-dose). Blood was collected from 3 animals/time point and concentrations of Structure 2 in plasma determined using LC/MS.

[4] = tested on: phosphorylated ERK 1/2 (T202/Y204); assay: Phosphorylated ERK bioassay (Western blot, SW480 cells); format: cell-based, human; conditions: 3 μM, 24 hours, in the presence of serum
Procedure: As described herein, the main downstream target for kRAS is ERK (Samatar et al., Targeting RAS-ERK signaling in cancer: promises and challenges. Nat Rev Drug Discov. 2014; 13:928-42). kRAS activates ERK leading to phosphorylated ERK. A compound that suppresses kRAS activity is expected to lower phosphorylated ERK.
Test articles abrogate the expression of phosphorylated ERK (T202/Y204) SW480 cells were subjected to test article incubation at 3 μM for 24 hours in the presence of serum to mimic natural growth environment. Cells were extracted and total protein of samples normalized through BCA assay. Processed extracts were subjected to SDS-PAGE/Western blot and blotted for phosphorylated ERK 1/2 (T202/Y204); ERK 1/2; and α-Tubulin.
The compound U0126 in FIG. 8 is a MEK inhibitor which is known to suppress phosphorylation of ERK. The compound was tested along with the test articles to serve as a positive control.

c1ccc(-n2cc(CN3CCN(c4ncnc5ccccc45)CC3)cn2)cc1 [Structure 3, 4-(4-((1-phenyl-1H-pyrazol-4-yl)methyl)piperazin-1-yl)quinazoline]
body weight or grooming habits versus dosing vehicle treated animals [1]: no statistically significant difference | clinical chemistry changes versus dosing vehicle treated animals [1]: no significant clinical chemistry changes | ALB ([1]; Day 6): 4.0 ± 0.10 g/dL | ALP ([1]; Day 6): 106.3 ± 21.40 U/L | ALT ([1]; Day 6): 77.3 ± 16.30 U/L | AMY ([1]; Day 6): 932.0 ± 98.90 U/L | BUN ([1]; Day 6): 22.0 ± 5.40 mg/dL | CRE ([1]; Day 6): <0.40 mg/dL | Ca^++ ([1]; Day 6): 9.7 ± 0.10 mg/dL | GLOB ([1]; Day 6): 1.2 ± 0.10 g/dL | GLU ([1]; Day 6): 309.0 ± 45.10 mg/dL | GRA ([1]; Day 6): 0.4 ± 0.20 10^9/l | GRA (%) ([1]; Day 6): 7.0 ± 3.00% | HCT ([1]; Day 6): 43.1 ± 1.80% | HGB ([1]; Day 6): 14.1 ± 0.50 g/dL | K^+ ([1]; Day 6): 4.6 ± 0.20 mmol/L | LYM ([1]; Day 6): 4.6 ± 1.40 10^9/l | LYM (%) ([1]; Day 6): 90.0 ± 4.30% | MCH ([1]; Day 6): 16.0 ± 0.70 pg | MCHC ([1]; Day 6): 32.7 ± 2.50 g/dL | MCV ([1]; Day 6): 49.3 ± 4.30 fL | MON ([1]; Day 6): 0.2 ± 0.20 10^9/l | MON (%) ([1]; Day 6): 3.1 ± 2.00% | MPV ([1]; Day 6): 6.7 ± 0.40 fL | NA^+ ([1]; Day 6): 147.8 ± 2.20 mmol/L | PCT ([1]; Day 6): 0.4 ± 0.10% | PDWc ([1]; Day 6): 30.0 ± 1.50% | PHOS ([1]; Day 6): 9.8 ± 0.40 mg/dL | PLT ([1]; Day 6): 578.8 ± 86.70 10^9/l | RBC ([1]; Day 6): 8.8 ± 0.50 10^12/l | RDWc ([1]; Day 6): 17.4 ± 0.70% | TBIL ([1]; Day 6): 0.4 ± 0.00 mg/dL | TP ([1]; Day 6): 5.2 ± 0.20 g/dL | WBC ([1]; Day 6): 5.2 ± 1.80 10^9/l | wing scores compared to the control group ([2]; Tukey HSD and LSD p<0.001, Mann Whitney p=0.002): significantly different from the control group | Reversal Phenotype (%) ([2]; wings with score of 3 or above, Structure 2 at 10 μmolar, control 8.27): 16% | Vd/F ([3]; plasma, plasma): 3.19 L/kg | Vd/F ([3]; plasma, plasma, text statement): > 3 L/kg | mean resident times (MRT) [3]: approximately one to two | AUCINF ([3]; plasma): 4.12 (Microgram * Hour)/mL | AUC_%Extrap ([3]; plasma): 4.92% | AUClast ([3]; plasma): 3.92 (Microgram * Hour)/mL | CI/F ([3]; plasma): 0.242 L/h/kg | Concentrationmax ([3]; plasma): 3.38 Microgram/mL | Lambda_z ([3]; plasma): 0.76 h⁻¹ | MRTINF ([3]; plasma): 1.25 h | MRTlast ([3]; plasma): 1.03 h | Timelast ([3]; plasma): 4.00 h | concentration at 4 Hour ([3]; mouse, plasma, read-out: Concentrationlast): 0.15 µg/mL | phosphorylated ERK (T202/Y204) [4]: dramatically decrease phosphorylated ERK
